“Also recorded” adds a separate entry of the source.
Columns and labels:
intact cells = assay: activity in intact cells; assay type: cell-based
apopain/CPP32 = target: T1, apopain/CPP32 (Homo sapiens, UniProt P42574); assay: continuous fluorometric assay with Ac-DEVD-AMC and purified apopain; assay type: biochemical
T1 construct: cleavage between Asp^28 -Ser^29 and Asp^175 -Ser^176; cleavage sites which yield the p17 and p12 subunits from the CPP32 proenzyme; endogenous in cells; host or cells: THP-1 cells (ATCC TIB 202)
T1 sequence (P42574 29-175 limits assumed): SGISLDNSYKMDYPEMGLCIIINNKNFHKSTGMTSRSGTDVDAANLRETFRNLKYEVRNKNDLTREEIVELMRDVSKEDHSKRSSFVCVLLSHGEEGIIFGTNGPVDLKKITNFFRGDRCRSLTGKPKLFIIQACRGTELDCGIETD
T1 sequence (P42574 176-277 limits assumed): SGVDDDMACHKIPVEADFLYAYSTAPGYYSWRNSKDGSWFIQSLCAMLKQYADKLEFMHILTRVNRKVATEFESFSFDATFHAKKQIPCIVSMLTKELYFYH

[1] = target: T2, PARP cleavage activity in apoptotic osteosarcoma cell extracts (Homo sapiens, UniProt P42574); assay: [35S]PARP cleavage by cytosolic extracts of apoptotic osteosarcoma cells; assay type: biochemical; conditions: for IC50: apoptotic osteosarcoma cell extracts, [35S]PARP, read-out: IC50 for inhibition of PARP cleavage activity; for effect on proteolytic cleavage of PARP: FIG. 2a, 5 mM N-ethylmaleimide, 5 mM iodoacetamide, 10 μM E-64
T2 construct: 10 μg protein from the cytosol fraction of apoptotic osteosarcoma cells (from 7 day, post-confluent cultures); endogenous in cells; host or cells: human osteosarcoma cells 143.98.2 (ATCC CRL 11226), 7 day post-confluent (apoptotic), cytosol fraction
T2 sequence (P42574 29-175 limits assumed): T1 sequence (P42574 29-175 limits assumed)
T2 sequence (P42574 176-277 limits assumed): T1 sequence (P42574 176-277 limits assumed)

| Structure (SMILES) | IC50 [1] [µM] | effect on proteolytic cleavage of PARP [1] | further results |
| --- | --- | --- | --- |
| CC(=O)N[C@@H](CC(=O)O)C(=O)N[C@@H](CCC(=O)O)C(=O)N[C@H](C(=O)NC(C=O)CC(=O)O)C(C)C (stereo partly drawn) [Ac-DEVD-CHO, N-(N-Acetyl-L-aspartyl-L-glutamyl-L-valinyl)-3-amino-3-formylpropionic acid] | – | – | activity in intact cells (intact cells): inactive; membrane permeability (intact cells): membrane impermeable; enzyme activity at infinite time (apopain/CPP32; 50 nM inhibitor, 1×Km Ac-DEVD-AMC): complete inhibition; also recorded: nearly complete suppression |
| CC(C)C[C@H](NC(=O)[C@H]1O[C@@H]1C(=O)O)C(=O)NCCCCN=C(N)N [Example E-64] | – | not | – |
| CCN1C(=O)C=CC1=O [N-ethylmaleimide] | – | abolished | – |
| NC(=O)CI [iodoacetamide] | – | abolished | – |

Further lines, with some results ahead:

| IC50 [1] [µM] | Structure (SMILES) | effect on proteolytic cleavage of PARP [1] | further results |
| --- | --- | --- | --- |
| > 10 | CC(=O)N[C@@H](CC(=O)O)C(=O)N[C@@H](CCC(=O)O)C(=O)N[C@H](C(=O)N[C@@H](CC(=O)O)C(=O)O)C(C)C [Ac-DEVD-COOH, N-Acetyl-aspartyl-glutamyl-valinyl-aspartic acid] | – | – |
| > 10 | CC(=O)N[C@@H](Cc1ccc(O)cc1)C(=O)N[C@H](C(=O)N[C@@H](C)C(=O)N[C@H](C=O)CC(=O)O)C(C)C [Ac-YVAD-CHO] | – | Ki (apopain/CPP32): 12 µM |

From patent US5798442A, “Peptidyl derivatives as inhibitors of pro-apoptotic cysteine proteinases” (Merck Frosst Canada, Inc., priority 1995, dated 1998)
